Columns and labels:
astrocytes = assay: Cellular antioxidant activity (ABAP peroxyl radicals) in astrocytes; assay type: cell-based; details: for effect on ABAP-generated peroxyl radical (ROS) fluorescence: astrocytes, ABAP 0.6 mM
Protocol: In the cellular antioxidant activity (CAA) assay, cell viability was determined by a modification of the crystal violet assay (Kueng et al., 1989) as follows. At the end of cell treatments, cells were fixed with 150 μL of 5% (v/v) formaldehyde (in PBS) for 15 min at room temperature. Plates were washed by submersion in de-ionized water, dried and stained for 15 min with 150 μL of a 1% crystal violet solution. After careful aspiration of the crystal violet solution the plates were washed with de-ionized water, and dried prior to the solubilization of the bound dye with 150 μL of a 33% aqueous glacial acetic acid solution. The optical density of the plates was measured at 540 nm (with a 690 nm reference filter) in a microplate spectrophotometer.
Intracellular ROS production was detected using the non-fluorescent cell permeating compound, 2′7′-dichlorofluorescein diacetate (DCF-DA). DCF-DA is hydrolyzed by intracellular esterases and then oxidized by ROS to a fluorescent compound 2′-7′-DCF. Peroxyl radicals are generated by thermolysis of 2,2′-Azobis(amidinopropane) (ABAP) at physiological temperature. ABAP decomposes at approximately 1.36×10^−6s^−1 at 37° C., producing at most 1×10^12 radicals/mL/s (Bowry and Stocker, 1993; Niki et al., 1986; Thomas et al., 1997). Astrocytes (300,000 cells/well) were plated in DMEM containing 2% FBS, 8.4 mM HEPES, 2 mM glutamine, 100 U/mL penicillin and 100 μg/mL streptomycin, onto 24 well plates. In order to measure the ability of TTF to enter the cells and prevent the formation of dichlorofluorescein (DCF) by ABAP-generated peroxyl radicals, cells were incubated for 1 h with TTF. […] The fluorescence, which indicates ROS levels, was measured in a plate reader with excitation at 485 nm and emission at 520 nm.
2. […] Read “time 0” fluorescence (Ex: 485 nm and Em: 528 nm); 7. […] Read fluorescence at 3, 6, and 24 hr Ex: 485 nm and Em: 528 nm; 9. […]
Astrocytes were incubated with TTF or quercetin for 2 h. […] ABAP (0.6 mM) was added to the culture and the fluorescence intensity, representing ROS levels was measured. […]

NO = NO (nitrite) production by LPS-activated microglial cells (Griess); assay type: cell-based, rat; details: Rattus norvegicus; 40 μM (highest concentration tested); LPS 4.5 ng/mL, 20 h; read-out: inhibition of NO secretion
Protocol: Cultures of primary rat microglial cells were prepared from cerebral cortices of 1-2 day-old neonatal Wistar rats as described. Microglial cells were seeded at 24-well plastic plates at 1×10^5/well in RPMI-1640 containing 2% FBS, 2 mM glutamine, 100 U/mL penicillin, 100 µg/mL streptomycin, 1 mM sodium pyruvate, and 50 μM β-mercaptoethanol. Cells were cultured for 36 h before treatments. The research was conducted in accordance with the NIH guide for the care and use of laboratory animals, and was approved by the Institutional Animal Care and Use Committee of The Volcani Center, Agricultural Research Organization (IL-135/07, approval date Apr. 11, 2007). All efforts were made to minimize animal suffering, and to reduce the number of animals used.
For NO measurements, 1×10^5 microglial cells/well were plated in a 24-well tissue culture plate. Cells were stimulated with LPS (4.5 ng/mL) and concomitantly treated with achillolide A or a reference drug. NO levels in the culture medium were estimated with Griess reagent.
3. Activate microglial cells with lipopolysaccharide (LPS, 4.5 nanograms/mL);
In FIG. 21 A, microglial cells were treated with different concentrations of achillolide A, dexamethasone or memantine (as reference drugs) and were concomitantly activated by LPS (4.5 ng/mL) for 20 h. Cell conditioned supernatants were collected, and the levels of NO were measured using Griess reaction. Cytotoxicity was measured using the LDH method (FIG. 21B). Values represent the mean±SEM (n=12 for each treatment). ** p<0.01; ***p<0.001 relative to cells that were treated to LPS only.

Compound	effect on ABAP-generated peroxyl radical (ROS) fluorescence (astrocytes)	cell viability in the cellular antioxidant activity assay (astrocytes; crystal violet, 20 h after ABAP)	inhibition at 40 µM (NO) [%]
COc1cc(-c2oc3cc(OC)c(OC)c(O)c3c(=O)c2O)ccc1O [TTF, 3,5,4′-trihydroxy-6,7,3′-trimethoxyflavone]	moderated the increase in ROS-induced fluorescence	cell viability was not affected	
C=C1CCC2=C(CO)C(=O)O[C@H]2/C=C(\C)[C@H](OC(C)=O)CC1=O [achillolide A]			66
CC12CC3CC(C)(C1)CC(N)(C3)C2 [memantine, reference compound]			64
O=c1c(O)c(-c2ccc(O)c(O)c2)oc2cc(O)cc(O)c12 [quercetin, 3,3′,4′,5,7-Pentahydroxyflavone, reference compound]	similarly effective as TTF		
